These results are taken from ChEMBL document CHEMBL1275295, “Synthesis of some p-toluenesulfonyl-hydrazinothiazoles and hydrazino-bis-thiazoles and their anticancer activity” (Eur J Med Chem, 2010).

The inhibition is the percentage by which the read-out fell short of the control. As a reminder, the IC50 is the concentration needed to halve the response being measured. Read a high IC50 as a need for much substance.

Assay [1] has as its system DU-145. Description: Inhibition of proliferation of human DU145 cells at 36.2 uM after 72 hrs by XTT assay. Format: functional. The following applies: DU-145, 72 h.
In assay [2] the test system is HepG2. Description: Inhibition of proliferation of human HepG2 cells at 51 uM after 72 hrs by XTT assay. Format: functional. The note with it: HepG2, 72 h. On the technique in general: Tetrazolium dyes change colour on reduction, which living cells bring about.
In assay [3] the test system is DU-145. Nature of the assay: Inhibition of proliferation of human DU145 cells after 72 hrs by XTT assay. The note with it: DU-145, 72 h. Format: functional, cell-based.
The test system of assay [4] is HepG2. Description: Inhibition of proliferation of human HepG2 cells after 72 hrs by XTT assay. Format: functional, cell-based. The following applies: HepG2, 72 h.
Assay [5] concerns DU-145. Nature of the assay: Inhibition of proliferation of human DU145 cells at 44.2 uM after 72 hrs by XTT assay. Format: functional. The note with it: DU-145, 72 h.
Assay [6] deals with HepG2. Description: Inhibition of proliferation of human HepG2 cells at 36.2 uM after 72 hrs by XTT assay. Format: functional. The note with it: HepG2, 72 h.
For assay [7], the system named is DU-145. Description: Inhibition of proliferation of human DU145 cells at 38.5 uM after 72 hrs by XTT assay. Format: functional. The following applies: DU-145, 72 h.
Assay [8] relates to DU-145. Description: Inhibition of proliferation of human DU145 cells at 35.2 uM after 72 hrs by XTT assay. Format: functional. The following applies: DU-145, 72 h.
The subject of assay [9] is HepG2. Description: Inhibition of proliferation of human HepG2 cells at 35.2 uM after 72 hrs by XTT assay. Format: functional. The note with it: HepG2, 72 h.
Assay [10] has as its system DU-145. Description: Inhibition of proliferation of human DU145 cells at 34.1 uM after 72 hrs by XTT assay. Format: functional. The following applies: DU-145, 72 h.
The test system of assay [11] is HepG2. Description: Inhibition of proliferation of human HepG2 cells at 34.1 uM after 72 hrs by XTT assay. Format: functional. The following applies: HepG2, 72 h.
For assay [12], the system named is DU-145. Description: Inhibition of proliferation of human DU145 cells at 102 uM after 72 hrs by XTT assay. Format: functional. The note with it: DU-145, 72 h.
Assay [13] has as its system HepG2. Description: Inhibition of proliferation of human HepG2 cells at 44.2 uM after 72 hrs by XTT assay. Format: functional. The following applies: HepG2, 72 h.
The subject of assay [14] is HepG2. Nature of the assay: Inhibition of proliferation of human HepG2 cells at 72.5 uM after 72 hrs by XTT assay. Format: functional. The note with it: HepG2, 72 h.

For the molecule `Cc1ccc(S(=O)(=O)NNc2nc(-c3ccccc3)cs2)cc1`, the inhibition at 36.2 µM in [1] came to 100%. This molecule gave an inhibition at 51 µM in [2] of 100%. Moreover, the IC50 in [3] turned out to be 9.07 µM; in [4], 9.16 µM.

On to `O=C(NNc1nc(CCl)cs1)c1csc(-c2ccccc2)n1`, for which the IC50 in assay [3] was 49.2 µM; in [4], 11.2 µM.

For the molecule `CCOC(=O)c1sc(N(C(C)=O)N(C(C)=O)S(=O)(=O)c2ccc(C)cc2)nc1C`, the IC50 in assay [3] and in [4] was > 57 µM each time.

For the molecule `CC(=O)N(c1nc(-c2ccccc2)cs1)N(C(C)=O)S(=O)(=O)c1ccc(C)cc1`, the IC50 in assay [3] and in assay [4] was > 58.3 µM throughout.

In the case of `CCOC(=O)Cc1csc(N(NC(=O)c2csc(-c3ccccc3)n2)C(C)=O)n1`, the IC50 in assay [3] and in assay [4] was > 58.1 µM in each case.

Turning to `CCOC(=O)Cc1csc(N(C(C)=O)N(C(C)=O)S(=O)(=O)c2ccc(C)cc2)n1`, the IC50 in [3] was determined as 46.4 µM; in assay [4], 11 µM.

`Cc1ccc(S(=O)(=O)NNc2nc(C)cs2)cc1` yielded an inhibition at 44.2 µM in [5] of 100%. The same molecule displayed an inhibition at 36.2 µM in [6] of 100%. Moreover, the IC50 is 6.96 µM in [3] and < 5.65 µM in [4].

For `CC(=O)c1sc(NNS(=O)(=O)c2ccc(C)cc2)nc1C`, 38.5 µM produced 100% inhibition in [7]. The results for the IC50 in assay [3] and in assay [4] were 9.84 µM and 8.77 µM, respectively.

`CCOC(=O)c1sc(NNS(=O)(=O)c2ccc(C)cc2)nc1C`: the inhibition at 35.2 µM in assay [8] and in [9] was 100% each time. Further, the IC50 is 4.68 µM in assay [3] and < 4.51 µM in assay [4].

As for `CC(=O)N(c1nc(C)cs1)N(C(C)=O)S(=O)(=O)c1ccc(C)cc1`, the inhibition at 34.1 µM in assay [10] and in [11] was 100% each time. Further, the IC50 in assay [3] worked out at 7.63 µM; in assay [4] it was 7.36 µM.

For `CC(=O)c1sc(N(C(C)=O)N(C(C)=O)S(=O)(=O)c2ccc(C)cc2)nc1C`, the IC50 came to 53.5 µM in assay [3] and 57.4 µM in assay [4].

On to `COc1cccc2c1C(=O)c1c(O)c3c(c(O)c1C2=O)C[C@@](O)(C(=O)CO)C[C@@H]3O[C@H]1C[C@H](N)[C@H](O)[C@H](C)O1` [DOXORUBICIN], for which the IC50 in assay [3] and in assay [4] was < 2.94 µM in each case.

Regarding `Cc1ccc(S(=O)(=O)NNC(N)=S)cc1`, the inhibition at 102 µM in assay [12] turned out to be 100%. In assay [13], this molecule displayed an inhibition at 44.2 µM of 100%. The molecule further had an inhibition at 72.5 µM in [14] of 100%. Also, the IC50 in [3] and in assay [4] was 8.98 µM throughout.

Regarding `CC(=O)N(c1nc(CCl)cs1)N(C(C)=O)S(=O)(=O)c1ccc(C)cc1`, the IC50 in [3] and in [4] was > 62.3 µM each time.
